{"source": "paper PMC10530652", "about": "(BME Frontiers, 2021)", "key": {"[1]": {"tested_on": "primary human lung tissue", "experiment": "Ex vivo fibre-based (FCFM) imaging of human lung tissue with FIB One", "details": "marimastat 100 μM, FIB One 1 μM, 10 min, n=9, P=0.0215", "protocol": "Human lung tissue samples (lung tumour and noncancerous adjacent tissue) were obtained following surgical resection and stored at -80° C until use. Processing for multiwell plate reader assay or zymography analysis was conducted as follows: 1 mm×4 mm sections were homogenised in 400 μL MMP buffer in Precellys 2.8 mm ceramic bead tubes (VWR) using a Pecellys 24 homogeniser. Homogenised tissue was adjusted to 4 mg mL^-1 protein (determined by a Pierce BCA Total Protein Assay Kit (Thermo Fisher Scientific), following the manufacturer’s instructions). Multiwell plate reader assays were performed as previously described, replacing the MMP buffer and MMP enzymes for the homogenised and protein-adjusted lung tissue.\nFor ex vivo imaging, human lung tissue was sliced into 1 mm×4 mm sections and placed in the wells of a 96-well plate with 100 μL of MMP buffer and 30 nM MMP-13. […] The fluorescence for each sample was calculated by determining the average fluorescence per frame for each time point. […] Five independent patient specimens were collected and analysed. RFUs collected from off-target frames (showing motion artefact or absence of any fluorescence) were omitted during analysis."}, "[2]": {"tested_on": "stimulated human neutrophils", "experiment": "FIB One cleavage in supernatant from stimulated neutrophils", "type": "cell-based", "details": "coincubation with marimastat, FIB One 1 μM, 10 min", "protocol": "Neutrophils were isolated from the blood of healthy human volunteers as previously described. The number of retrieved neutrophils was determined with NucleoCounter NC-1000 (Chemo Metec). Neutrophils were resuspended at a concentration of 20×10^6 mL^-1 in 0.9% NaCl with 0.9 mM CaCl2. Cells were incubated for 30 min at 37°C. Cells to be stimulated were subsequently activated with 5 μM calcium ionophore A23187 (Tocris Bioscience) for 30 min at 37°C. Neutrophils were harvested by centrifugation at 400 x g for 5 min. Supernatants were removed and stored. Plate reader assays were performed as described above, with the MMP buffer replaced with neutrophil supernatant. All experiments were carried out in duplicate using three independent donors (one donor per independent repeat). Data were normalised by background subtraction of intrinsic fluorescence."}, "MMP-2": {"molecular_target": "T1, MMP-2 (Homo sapiens, UniProt P08253)", "T1 construct": "recombinant MMPs (Enzo Life Sciences) (active domains of MMP-1, MMP-2, MMP-3, MMP-7, MMP-8, MMP-9, MMP-10, MMP-11, MMP-12, and MMP-13); purchased Enzo Life Sciences", "T1 sequence (P08253 110-446 limits assumed)": "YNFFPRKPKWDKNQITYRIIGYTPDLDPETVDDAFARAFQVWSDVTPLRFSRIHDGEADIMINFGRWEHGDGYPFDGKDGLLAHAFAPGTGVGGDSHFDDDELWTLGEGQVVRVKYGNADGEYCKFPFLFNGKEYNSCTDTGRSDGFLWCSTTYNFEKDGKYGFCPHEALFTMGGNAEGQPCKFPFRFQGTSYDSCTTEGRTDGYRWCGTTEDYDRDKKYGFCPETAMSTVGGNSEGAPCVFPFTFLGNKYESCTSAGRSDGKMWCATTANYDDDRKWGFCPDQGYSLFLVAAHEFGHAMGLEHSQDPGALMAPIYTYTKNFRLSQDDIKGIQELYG", "experiment": "In vitro enzymatic validation of FIB One with recombinant MMP-2 (plate reader)", "type": "biochemical", "details": "marimastat 20 μM, enzyme pre-incubated 30 min at 37°C, FIB One 1 μM, MMP 30 nM", "protocol": "(§1) To determine the enzymatic specificity of FIB One, the probe was incubated at a concentration of 1 μM (unless otherwise stated) with the recombinant MMPs (Enzo Life Sciences) (active domains of MMP-1, MMP-2, MMP-3, MMP-7, MMP-8, MMP-9, MMP-10, MMP-11, MMP-12, and MMP-13, all at 30 nM), thrombin (Sigma Aldrich) (5 U/mL), factor Xa (Sigma Aldrich) (500 nM), plasmin (Sigma Aldrich) (30 nM), and human neutrophil elastase (30 nM). Where appropriate, enzymes were incubated with specific inhibitors for 30 min at 37°C prior to addition of FIB One. […] Enzyme free reactions served as a control. Enzymatic reactions were performed in MMP buffer (10 mM CaCl2, 6.1 g Tris-HCl, 8.6 g NaCl per litre, pH 7.5) in a final volume of 20 μL. Reactions were performed in duplicate in 384-well plates (Life Technologies) with optically clear plate seals (Thermo Scientific) and repeated thrice (independently). Fluorescence signal was measured for up to 60 min, ex/em 485/528 nm using microplate reader (BioTek Synergy H1 multimode reader). Data were normalised to buffer alone and are presented as fold-change in signal (relative fluorescent units, RFU) compared to enzyme-free controls. Data were plotted using Prism 7 (GraphPad Software Inc., La Jolla, CA, USA)."}, "MMP-9": {"molecular_target": "T2, MMP-9 (Homo sapiens, UniProt P14780)", "T2 construct": "recombinant MMPs (Enzo Life Sciences) (active domains of MMP-1, MMP-2, MMP-3, MMP-7, MMP-8, MMP-9, MMP-10, MMP-11, MMP-12, and MMP-13); purchased Enzo Life Sciences", "T2 sequence (P14780 107-444 limits assumed)": "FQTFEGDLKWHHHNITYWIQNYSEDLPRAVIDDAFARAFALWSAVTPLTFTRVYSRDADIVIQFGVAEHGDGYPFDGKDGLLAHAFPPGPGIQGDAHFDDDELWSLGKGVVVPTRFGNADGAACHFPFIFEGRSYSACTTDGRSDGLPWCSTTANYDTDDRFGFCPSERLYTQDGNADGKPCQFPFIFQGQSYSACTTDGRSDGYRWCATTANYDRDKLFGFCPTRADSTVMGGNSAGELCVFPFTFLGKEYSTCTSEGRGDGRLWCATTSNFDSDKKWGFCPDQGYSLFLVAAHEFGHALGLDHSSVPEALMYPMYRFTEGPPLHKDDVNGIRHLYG", "experiment": "In vitro enzymatic validation of FIB One with recombinant MMP-9 (plate reader)", "type": "biochemical", "details": "marimastat 20 μM, enzyme pre-incubated 30 min at 37°C, FIB One 1 μM, MMP 30 nM", "protocol": "as §1"}, "[3]": {"tested_on": "MMP activity in ex vivo ventilated ovine lung", "experiment": "Ex vivo ovine lung model instilled with OPA supernatant, FCFM imaging", "details": "marimastat 100 μM with OPA supernatant, 5 μM FIB One", "protocol": "Ovine pulmonary adenocarcinoma (OPA) tissue was homogenised using a drill homogeniser, followed by lysis in cell lysis buffer. The supernatant was collected following centrifugation at 12,000 rpm for 20 min. The samples were adjusted to 1 mg mL^-1 total protein (determined by a Pierce BCA Total Protein Assay Kit (Thermo Fisher Scientific)). Zymography (as described above) was performed to confirm MMP activity across multiple OPA samples. Recombinant MMP-9 (2 nM) and recombinant pro-MMP-9 (0.5 nM) were included in the assay as positive controls. […] Following >30 min, the segments were bronchoscopically identified and microdosed with 5 μM FIB One in 1 mL. FCFM imaging was undertaken pre- and postinstillation (Cellvizio®, Mauna Kea Technologies). This was performed by passing a FCFM fibre into the disparate bronchopulmonary segments (up to 5 passes per bronchopulmonary segment to capture a regional representation of fluorescence), recording images at 12 frames per second and imaging for up to 5 minutes. Videos were analysed as described above. Each experimental set was normalised to the control segment (segment with 1 mL 0.9% NaCl instilled) which represents intrinsic autofluorescence."}, "[4]": {"experiment": "supernatant from stimulated (5 μM calcium ionophore A23187) neutrophils", "details": "human, up to 10 minutes"}}, "data": [{"molecule": "CNC(=O)[C@@H](NC(=O)[C@H](CC(C)C)[C@H](O)C(=O)NO)C(C)(C)C", "note": "[marimastat, reference compound]", "values": [{"measurement": "inhibition of FIB One cleavage", "setting": "[1]", "value": "cleavage inhibition observed"}, {"measurement": "inhibition of FIB One cleavage", "setting": "[2]", "value": "cleavage inhibition observed"}, {"measurement": "inhibition of FIB One activation", "setting": "MMP-2", "value": "blocked"}, {"measurement": "inhibition of FIB One activation", "setting": "MMP-9", "value": "blocked"}, {"measurement": "FIB One signal in inhibitor-dosed segments", "setting": "[3]", "value": "did not show an increase in FIB One signal"}]}, {"molecule": "FAM-PEG2-Pro-Phe-Gly-Nle-Lys-βAla-Lys(MethylRed)-PEG2-(D)Lys-PEG2-(D)Lys", "values": [{"measurement": "fragment found", "setting": "[4]", "value": "peak at 823 Da, 10 min"}]}]}
